Here are results for 20 molecules from US9233983B2, “Substituted hetero-bicyclic compounds, compositions and medicinal applications thereof” (ADVINUS THERAPEUTICS LIMITED, priority 2012, dated 2016).

By IC50 is commonly meant the point on the concentration scale where inhibition reaches its midpoint.

One test relates to mouse splenocytes. The test can be described thus: Inhibition of B Cell Activation as Measured by CD69 Expression in Mouse Splenocytes. The format is cell-based. The conditions noted are these: Splenocyte; C57/BL6 splenocytes, 3 ug/mL goat anti-mouse IgM, 18-20 hrs, CD69+ve cells within CD19; read-out: Mouse spleenocyte IC50. As for the experimental part: Inhibition of B Cell Activation as Measured by CD69 Expression in Mouse Splenocytes:
To test the effect of BTK inhibitors in suppressing B-cell receptor (BCR) mediated activation of B cells, we developed a flow cytometry based assay to analyze CD69 expression in B cell population among total splenocyte from the mouse. […] Finally, cell were cultured in RPMI medium with 10% FBS.
Test compounds were diluted half log starting from 2 mM in 100% DMSO (200×). 1×10^5 splenocytes were incubated with 1 uL of diluted test compounds in 200 uL culture medium in a U-bottom 96 well plate (Greiner) at 37° C. with 5% CO2 for 30 mins. Control wells received 1 uL of 100% DMSO without any compound. The cells were stimulated with 3 ug/mL goat anti-mouse IgM (Sigma, cat#M8644) and incubated for 18-20 hrs. […] Then the cells were washed 3 times with PBS with 1% FBS and analyzed by Guava Easycyte Mini flow cytometer system (Millipore). Flow cytometry data were analyzed using Weasel software (WEHI, Melbourne). First B cells were gated using CD19 markers. Then expression of CD69 was analyzed as percentage of CD69+ve cells within CD19. Percent activity for each data point was calculated using following formula: […]
Percentage activity was fit using sigmoid dose response with variable slope logistic equation in Graph-pad Prism 5 software to determine inhibition constant 50 (IC50).

Test [1] deals with human Bruton's Tyrosine Kinase (Btk) (Homo sapiens (Human), UniProt Q06187). Briefly: Recombinant Human Bruton's Tyrosine Kinase (Btk) Inhibition Assay (HTRF KinEASE-TK). The format is biochemical. The conditions noted are these: 20 ng/ml rhBtk, 77 μM ATP (KM), 1 μM TK-Biotin substrate, 90 min; read-out: hBTK IC50. (Time-resolved FRET reads energy transfer from a long-lived donor to a nearby acceptor.)
human Bruton's Tyrosine Kinase (Btk), sequence (Q06187 whole entry): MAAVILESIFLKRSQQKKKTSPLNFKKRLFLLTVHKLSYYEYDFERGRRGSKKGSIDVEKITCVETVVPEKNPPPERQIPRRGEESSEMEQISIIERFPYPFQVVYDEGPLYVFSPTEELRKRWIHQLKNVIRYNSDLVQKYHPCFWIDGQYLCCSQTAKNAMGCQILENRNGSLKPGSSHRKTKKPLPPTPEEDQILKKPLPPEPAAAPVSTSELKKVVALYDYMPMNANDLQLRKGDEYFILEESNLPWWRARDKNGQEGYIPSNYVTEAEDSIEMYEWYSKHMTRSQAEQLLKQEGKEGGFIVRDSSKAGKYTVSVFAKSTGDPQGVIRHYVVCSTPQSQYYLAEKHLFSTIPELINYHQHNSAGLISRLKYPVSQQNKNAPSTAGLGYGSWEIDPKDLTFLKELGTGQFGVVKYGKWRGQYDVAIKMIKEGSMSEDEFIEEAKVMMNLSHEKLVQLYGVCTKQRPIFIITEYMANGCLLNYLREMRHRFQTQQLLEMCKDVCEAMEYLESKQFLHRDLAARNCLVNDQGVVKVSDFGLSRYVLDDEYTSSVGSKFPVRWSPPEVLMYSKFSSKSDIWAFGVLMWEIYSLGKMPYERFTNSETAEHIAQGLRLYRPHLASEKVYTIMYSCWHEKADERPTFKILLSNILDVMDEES

On to `CN1CCCC(F)(c2ccc(-c3cc4c(-c5cccc(N6CCOc7cc(C8CC8)ccc7C6=O)c5CO)ccnc4[nH]3)cc2)C1` (stereo not shown) [Example J-2, 8-cyclopropyl-4-[3-[2-[4-(3-fluoro-1-methyl-3-piperidyl)phenyl]-1H-pyrrolo[2,3-b]pyridin-4-yl]-2-(hydroxymethyl)phenyl]-2,3-dihydro-1,4-benzoxazepin-5-one], for which the IC50 in the test on mouse splenocytes stood at 77 nM; in test [1], 3.5 nM.
In the same order, the values of `O=C(CO)N1CC=C(c2cc3c(-c4cccc(N5CCOc6cc(C7CC7)cc(F)c6C5=O)c4CO)ccnc3[nH]2)CC1` [Example P-30, 8-cyclopropyl-6-fluoro-4-[3-[2-[1-(2-hydroxyacetyl)-3,6-dihydro-2H-pyridin-4-yl]-1H-pyrrolo[2,3-b]pyridin-4-yl]-2-(hydroxymethyl)phenyl]-2,3-dihydro-1,4-benzoxazepin-5-one] are 11 nM and 1 nM.
Turning to `CC(C)(O)CN1CC=C(c2cc3c(-c4cccc(N5CCOc6cc(C7CC7)cc(F)c6C5=O)c4CO)ccnc3[nH]2)CC1` [Example P-23, 8-cyclopropyl-6-fluoro-4-[2-(hydroxymethyl)-3-[2-[1-(2-hydroxy-2-methyl-propyl)-3,6-dihydro-2H-pyridin-4-yl]-1H-pyrrolo[2,3-b]pyridin-4-yl]phenyl]-2,3-dihydro-1,4-benzoxazepin-5-one], the IC50 in the test with mouse splenocytes came out at 75 nM; in test [1], 1.4 nM.
`CN1CCC(n2cc(-c3cc4c(-c5cccc(N6CCOc7cc(C8CC8)ccc7C6=O)c5CO)ncnc4[nH]3)cn2)CC1` [Example D-1, 8-cyclopropyl-4-[2-(hydroxymethyl)-3-[6-[1-(1-methyl-4-piperidyl)pyrazol-4-yl]-7H-pyrrolo[2,3-d]pyrimidin-4-yl]phenyl]-2,3-dihydro-1,4-benzoxazepin-5-one]: the values for the IC50 (in the test on mouse splenocytes; in test [1]) were 32 nM and 6 nM, respectively.
In the same order, the values of `CCN(CC)C(=O)N1CC=C(c2cc3c(-c4cccc(N5CCOc6cc(C7CC7)cc(F)c6C5=O)c4CO)ccnc3[nH]2)CC1` [Example P-19, 4-[4-[3-(8-cyclopropyl-6-fluoro-5-oxo-2,3-dihydro-1,4-benzoxazepin-4-yl)-2-(hydroxymethyl)phenyl]-1H-pyrrolo[2,3-b]pyridin-2-yl]-N,N-diethyl-3,6-dihydro-2H-pyridine-1-carboxamide] are 20 nM and 14.6 nM.
As for `CN1CCN(Cc2ccc(-c3cc4c(-c5cccc(N6CCOc7cc(C8CC8)ccc7C6=O)c5CO)ccnc4[nH]3)nc2)CC1` [Example I-1, 8-cyclopropyl-4-[2-(hydroxymethyl)-3-[2-[5-[(4-methylpiperazin-1-yl)methyl]-2-pyridyl]-1H-pyrrolo[2,3-b]pyridin-4-yl]phenyl]-2,3-dihydro-1,4-benzoxazepin-5-one], the IC50 was found to be 14 nM in the test on mouse splenocytes and 5 nM in test [1].
Take `Cc1c(-c2ncnc3[nH]c(-c4ccc(C(=O)N5CCC(C)(O)CC5)cc4)cc23)cccc1N1CCOc2cc(C3CC3)ccc2C1=O` [Example K-4, 8-cyclopropyl-4-[3-[6-[4-(4-hydroxy-4-methyl-piperidine-1-carbonyl)phenyl]-7H-pyrrolo[2,3-d]pyrimidin-4-yl]-2-methyl-phenyl]-2,3-dihydro-1,4-benzoxazepin-5-one]: the IC50 in the test with mouse splenocytes was determined as 129 nM; in test [1], 51 nM.
In the case of `NC(=O)CN1CC=C(c2cc3c(-c4cccc(N5CCOc6cc(C7CC7)cc(F)c6C5=O)c4CO)ccnc3[nH]2)CC1` [Example P-31, 2-[4-[4-[3-(8-cyclopropyl-6-fluoro-5-oxo-2,3-dihydro-1,4-benzoxazepin-4-yl)-2-(hydroxymethyl)phenyl]-1H-pyrrolo[2,3-b]pyridin-2-yl]-3,6-dihydro-2H-pyridin-1-yl]acetamide], the results for the IC50 (in the test on mouse splenocytes; in test [1]) were 52 nM and 5.3 nM, respectively.
In the same order, the values of `CN1CCC(n2cc(-c3cc4c(-c5cccc(-n6ccc7cc(C8CC8)ccc7c6=O)c5CO)ncnc4[nH]3)cn2)CC1` [Example D-3, 6-cyclopropyl-2-[2-(hydroxymethyl)-3-[6-[1-(1-methyl-4-piperidyl)pyrazol-4-yl]-7H-pyrrolo[2,3-d]pyrimidin-4-yl]phenyl]isoquinolin-1-one] are 43 nM and 5 nM.
In the same order, the values of `CN1CCN(Cc2ccc(-c3cc4c(-c5cccc(-n6ncc7cc(C8CC8)ccc7c6=O)c5CO)ncnc4[nH]3)cc2)CC1` [Example B-10, 6-cyclopropyl-2-[2-(hydroxymethyl)-3-[6-[4-[(4-methylpiperazin-1-yl)methyl]phenyl]-7H-pyrrolo[2,3-d]pyrimidin-4-yl]phenyl]phthalazin-1-one] are 20 nM and 2 nM.
As for `N#CCN1CC(n2cc(-c3cc4c(-c5cccc(N6CCOc7cc(C8CC8)ccc7C6=O)c5CO)ccnc4[nH]3)cn2)C1` [Example S-2, 2-[3-[4-[4-[3-(8-cyclopropyl-5-oxo-2,3-dihydro-1,4-benzoxazepin-4-yl)-2-(hydroxymethyl)phenyl]-1H-pyrrolo[2,3-b]pyridin-2-yl]pyrazol-1-yl]azetidin-1-yl]acetonitrile], the values for the IC50 (in the test on mouse splenocytes; in test [1]) were 126 nM and 12 nM, respectively.
In the case of `CN1CCN(Cc2ccc(-c3cc4c(-c5cccc(N6CCOc7cc(C8CC8)ccc7C6=O)c5CO)ncnc4[nH]3)cc2)CC1` [Example B-1, 8-cyclopropyl-4-[2-(hydroxymethyl)-3-[6-[4-[(4-methylpiperazin-1-yl)methyl]phenyl]-7H-pyrrolo[2,3-d]pyrimidin-4-yl]phenyl]-2,3-dihydro-1,4-benzoxazepin-5-one], the IC50 is 40 nM in the test on mouse splenocytes and 6 nM in test [1].
`CC(C)N1CC(n2cc(-c3cc4c(-c5cccc(N6CCOc7cc(C8CC8)ccc7C6=O)c5CO)ccnc4[nH]3)cn2)C1` [Example D-8, 8-cyclopropyl-4-[2-(hydroxymethyl)-3-[2-[1-(1-isopropylazetidin-3-yl)pyrazol-4-yl]-1H-pyrrolo[2,3-b]pyridin-4-yl]phenyl]-2,3-dihydro-1,4-benzoxazepin-5-one]: the IC50 in the test with mouse splenocytes amounted to 97 nM; in test [1] it was 6.5 nM.
In the same order, the values of `CCN1CC(C(=O)N2CC=C(c3cc4c(-c5cccc(N6CCOc7cc(C8CC8)cc(F)c7C6=O)c5CO)ccnc4[nH]3)CC2)C1` [Example R-5, 8-cyclopropyl-4-[3-[2-[1-(1-ethylazetidine-3-carbonyl)-3,6-dihydro-2H-pyridin-4-yl]-1H-pyrrolo[2,3-b]pyridin-4-yl]-2-(hydroxymethyl)phenyl]-6-fluoro-2,3-dihydro-1,4-benzoxazepin-5-one] are 51 nM and 0.75 nM.
In the same order, the values of `CN(C)C(=O)N1CC=C(c2cc3c(-c4cccc(N5CCOc6cc(C7CC7)cc(F)c6C5=O)c4CO)ccnc3[nH]2)CC1` [Example P-14, 4-[4-[3-(8-cyclopropyl-6-fluoro-5-oxo-2,3-dihydro-1,4-benzoxazepin-4-yl)-2-(hydroxymethyl)phenyl]-1H-pyrrolo[2,3-b]pyridin-2-yl]-N,N-dimethyl-3,6-dihydro-2H-pyridine-1-carboxamide] are 5.8 nM and 1 nM.
Turning to `CC1(O)CCN(C(=O)c2ccc(-c3cc4c(-c5cccc(N6CCOc7cc(C8CC8)ccc7C6=O)c5CO)ccnc4[nH]3)nc2)CC1` [Example L-1, 8-cyclopropyl-4-[2-(hydroxymethyl)-3-[2-[5-(4-hydroxy-4-methyl-piperidine-1-carbonyl)-2-pyridyl]-1H-pyrrolo[2,3-b]pyridin-4-yl]phenyl]-2,3-dihydro-1,4-benzoxazepin-5-one], the IC50 in the test with mouse splenocytes is 67 nM; in test [1], 8 nM.
Turning to `CN1CC(N2CC=C(c3cc4c(-c5cccc(N6CCOc7cc(C8CC8)cc(F)c7C6=O)c5CO)ccnc4[nH]3)CC2)C1` [Example R-4, 8-cyclopropyl-6-fluoro-4-[2-(hydroxymethyl)-3-[2-[1-(1-methylazetidin-3-yl)-3,6-dihydro-2H-pyridin-4-yl]-1H-pyrrolo[2,3-b]pyridin-4-yl]phenyl]-2,3-dihydro-1,4-benzoxazepin-5-one], the IC50 came to 70 nM with mouse splenocytes and 1.6 nM in test [1].
Consider `CC1(O)CN(Cc2ccc(-c3cc4c(-c5cccc(N6CCOc7cc(C8CC8)ccc7C6=O)c5CO)ccnc4[nH]3)cc2)C1` [Example B-17], for which the IC50 stood at 74 nM in the test with mouse splenocytes and 6 nM in test [1].
Regarding `CN1CCN(c2ccc(-c3cc4c(-c5cccc(N6CCOc7cc(C8CC8)ccc7C6=O)c5CO)ccnc4[nH]3)cn2)CC1` [Example D-11, 8-cyclopropyl-4-[2-(hydroxymethyl)-3-[2-[6-(4-methylpiperazin-1-yl)-3-pyridyl]-1H-pyrrolo[2,3-b]pyridin-4-yl]phenyl]-2,3-dihydro-1,4-benzoxazepin-5-one], the IC50 was determined as 80 nM in the test with mouse splenocytes and 14 nM in test [1].
In the case of `CCN1CC(N2CC=C(c3cc4c(-c5cccc(N6CCOc7cc(C8CC8)cc(F)c7C6=O)c5CO)ccnc4[nH]3)CC2)C1` [Example R-2, 8-cyclopropyl-4-[3-[2-[1-(1-ethylazetidin-3-yl)-3,6-dihydro-2H-pyridin-4-yl]-1H-pyrrolo[2,3-b]pyridin-4-yl]-2-(hydroxymethyl)phenyl]-6-fluoro-2,3-dihydro-1,4-benzoxazepin-5-one], the IC50 turned out to be 21 nM in the test on mouse splenocytes and 1.5 nM in test [1].
